Results on five compounds are retold here after US10493061B2, “Compositions and methods comprising 2-(acylamino)imidazoles” (priority 2014, dated 2019).

Molecules are shown by their SMILES. Converted amounts (≈) assume the structure as drawn. “And” between values parts separate entries of the source, which are not always exact repeats. Equal values may be shown once. Read-outs that look alike come from different tables or passages of the source.

One data set has as its system Candida albicans. The data set is described as follows: MIC determination in 96-well plates. The settings on record: read-out: MIC100. The data set is classed as cell-based, Candida albicans (ATCC 90028).
Data set [1] deals with Mycobacterium tuberculosis. The experiment in a line: microbe, parasite or virus in culture. The settings on record: read-out: IC50 (anti-proliferative activity).
Method: (§1) Library screening and MIC determination for the compounds were performed in 96-well plates as described previously in Koch et al. Planta Med 2009; 75(12): 1326-1330. Different media were used for respective test organisms. […] Mycobacterium tuberculosis H37Ra (ATCC 25177) was grown in 7H9 medium with ADC supplement (Remel, Lenexa, Kans.). Final well volume was 200 μL. […] The remaining wells received 1 μL of test compound in DMSO, in triplicates for MIC determination. Incubation was overnight at 37° C. for other organisms except for M. tuberculosis which was incubated for 5 days. B. subtilis and M. tuberculosis received 11 μL of sterile 5 mg/mL 3-(4,5-dimethylthiazol-2-yl)-2,5-diphenyltetrazolium bromide (MTT) in PBS on day 1 or 4, respectively. Formazan precipitate was dissolved with 50 μL solubilization reagent (50% DMF, 5% SDS, 45% water). Plates were evaluated on a Muliskan FC plate reader (Fisher Scientific, Waltham, Mass.).
Data set [2] can be described thus: ITC binding of naamidine A to ZnCl2. Conditions: ITC with significant amounts of MeOH; reasonable approximation. From the text:
While this is believed to be a reasonable approximation of this binding, these ITC experiments were convoluted by solubility issues of the different species, requiring significant amounts of MeOH which can affect the accuracy of ITC experiments. Fisicaro et al. Thermochim. Acta 2014, 586 (0), 40-44. With a Zn^2+ binding affinity in the high nanomolar range, NA's phenotypic activity is likely a result of both kinase modulation and zinc binding.

The test system of another data set is A. baumanii. The experiment in a line: MIC determination in 96-well plates. The data set is classed as cell-based, Acinetobacter baumannii (ATCC 19606). The settings on record: Acinetobacter baumannii; read-out: MIC100.
For data set [3] the following is noted: in vivo, mouse models (Ireland et al.); cited from earlier work.
The subject of a further data set is CEM-TART cells. The data set is described as follows: Cytotoxicity in CEM-TART cells. The data set is classed as cell-based.
The subject of data set [4] is Mycobacterium tuberculosis. The settings on record: read-out: IC50 (anti-proliferative activity); MTT assay. A general note: Tetrazolium assays rely on reduction of a dye to a coloured formazan, in cell work by metabolically active cells.
Method: as §1
The next data set is described as follows: in vivo. Further details: species or system Sprague-Dawley rats. The settings on record: female, Sprague-Dawley, rat. How it is done: ZNA has promising pkpd parameters. An initial pharmacokinetic (PK) analysis on ZNA was performed at 1 mg/kg IV, 5 mg/kg PO. ZNA was dosed to female Sprague-Dawley rats at either 1 mg/kg intravenously or at 5 mg/kg orally. Plasma was collected with K2EDTA and stored at −80° C. until analysis. Quantification of ZNA was performed by protein precipitation followed by ultra-high performance liquid chromatography (UHPLC) interfaced to an electrospray ionization quadrapole time-of-flight mass spectrometer (ESI-QTOF). Plasma concentrations were determined from a calibration curve using […]. The values determined were fit with Phoenix WinNonlin and pharmacokinetic values reported.
The plasma concentrations for ZNA were very low, and most samples fell below the lower limit of quantification for the assay (10.0 ng/mL). This limited the data available for fitting in WinNonlin. To increase the amount of data for fitting, values from below the curve were extrapolated to approximately 40% of the LLOQ and were used for PK fitting. The percent of the area extrapolated in the PO PK animals ranged from 34-70% which was considered quite high. […] The oral bioavailability determined was approximately 6%. This value is considered a rough estimate based upon the area extrapolated and the unusually high clearance determined. […] Possible explanations for the high clearance are binding of compound to red blood cells, extremely rapid clearance that requires collection of earlier time points to establish a more accurate CO, and extrahepatic elimination.

The test system of a further data set is MCF-7s. The data set is described as follows: Cell viability of MCF-7 cells treated with ZNA and ZNA analogues. The data set is classed as cell-based, human. Conditions: ZNA analogues and metabolite; assay not further specified. The text has this: Of the analogues evaluated, those with more electron-donating groups at C5 or on the N^2-carbonyl seem to improve activity.

A short description of data set [5]: Zn^2+ binding, (ZNA)2Zn dimer formation (MeOH precipitation, X-ray, NMR). From the text:
The structure of the solid product was confirmed by X-ray crystallography (FIG. 14B). […] HCl in D2O protonates the ligand off the metal center, as evidenced by the disappearance of the diastereotopic benzyllic AB quartet in the dimer and its appearance as a singlet in the monomer. […] Of the analogues evaluated, those with more electron-donating groups at C5 or on the N^2-carbonyl seem to improve activity.

As to `COc1ccc(Cc2nc(NC3=NC(=O)N(C)C3=O)n(C)c2Cc2ccc(O)cc2)cc1` [Naamidine A], the MIC in the data set with Candida albicans was found to be 0.78 µM (≈ 0.338 µg/mL); with A. baumanii, 79 µM (≈ 34.2 µg/mL). Besides, the IC50 (commonly the concentration that gives 50% inhibition) was 940 nM and 0.41 µg/mL in data set [1]; 34.8 µM in the data set with CEM-TART cells (CEM-TART cells). In addition, the dissociation constant Kd – broadly, the equilibrium constant for the complex coming apart – in data set [2] is approximately 0.35 µM. In addition, the maximum tolerated dose in data set [3] is 25 mg/kg. In addition, the selectivity ratio in the data set with CEM-TART cells (CEM-TART IC50 relative to M. tuberculosis IC50) was found to be 37.

With `COc1ccc(-c2c3nc(N)n(C)c3cc3cc(OC)c(OC)c(OC)c23)cc1` [kealiinine C, Kealiinine C], in data set [4], the IC50 amounted to 42 µM.

Regarding `Cn1c(-c2ccc(O)cc2)c(Cc2ccccc2)[nH]/c1=N\C(=O)c1ccccc1F` [ZNA-18, (E)-N-(4-Benzyl-5-(4-hydroxyphenyl)-1-methyl-1H-imidazol-2(3H)-ylidene)-2-fluorobenzamide], in “in vivo”, the “ratio of major circulating metabolite to ZNA” value is given as 1:1. Also, in the data set with MCF-7s, the outcome was active.

With `COc1ccc(-c2c(Cc3ccccc3)nc(N(C)C(=O)c3ccccc3F)n2C)cc1` [ZNA-17, N-(4-Benzyl-5-(4-methoxyphenyl)-1-methyl-1H-imidazol-2-yl)-2-fluoro-N-methylbenzamide], in the data set on MCF-7s, the activity entry is listed as “not active”. Further, the “Zn^2+ binding” value in data set [5] is on record as “incapable of binding Zn^2+”.

On to `COc1ccc(-c2c3cc(OC)c(OC)cc3cc3c2nc(N)n3C)cc1` [kealiinine B, Kealiinine B], for which the IC50 in [4] was 8.9 µM.
